One compound from patent US7476688B2, “Cyclic amidine derivatives” (EISAI R&D Management Co., Ltd., priority 2001, dated 2009) can be followed below.

In assay [1] the test system is platelet rich plasma (PRP), thrombin-induced platelet aggregation. Put plainly: Inhibitory effects on platelet aggregation using platelet rich plasma (thrombin-induced). In kind it is cell-based. The note with it: Homo sapiens, 0.1 h, thrombin 0.5-1.5 units/ml, area under aggregation curve over 6 minutes, read-out: Thr IC50. The procedure:
Blood was sampled from a healthy adult who had taken no drugs for one week, and 3.8% citric acid (a ratio of 1:9 with respect to the blood) was added as an anticoagulant. The mixture was then centrifuged at 100 g for 10 minutes at room temperature to yield platelet rich plasma (PRP). The PRP-removed blood was further centrifuged at 1000 g for 10 minutes to yield platelet poor plasma (PPP). The number of platelet was counted using a multi-parameter automatic hemocyte counter (K4500, Sysmex), and the PRP was diluted to approximately 300,000/μl with the PPP. The platelet aggregation activity was determined in the following manner using an Aggregometer (MC Medical). GPRP-NH2 (final concentration 1 mM, 25 μl) was added as a fibrin polymerization inhibitor to the PRP (175 μl), after which Ca-free Tyrode solution (control) or the test compound suspension (25 μl) at different concentrations was added, incubation was performed at 37° C. for 3 minutes and then 25 μl of thrombin at the minimum concentration required to produce maximum aggregation (final concentration: optimum concentration among 0.5-1.5 units/ml) was added, for initiation of platelet aggregation. […] After addition of thrombin, the aggregation reaction was examined for 6 minutes and the areas under the aggregation curves were compared to determine the inhibition ratio, from which the IC50 value was calculated.

Assay [2] deals with Vascular smooth muscle cells (rSMC). Kind of assay: Rat smooth muscle cell proliferation assay (thrombin-stimulated, MTT). In kind it is cell-based. The settings on record: 48 h, thrombin 0.1 unit/ml, 2 days, MTT OD 590 nm, read-out: Rat SMC IC50. The procedure: Vascular smooth muscle cells (rSMC) were isolated from male SD rat aorta by the explant method. DMEM medium (Sigma) containing 10% fetal bovine serum (GibcoBRL), streptomycin and penicillin was used as the proliferation medium, and subculture was carried out at 37° C. in the presence of 5% CO2. Culture was initiated after adding 100 μl of rSMC suspension in proliferation medium at a concentration of 1×10^4 cells/ml, to a 96-well plate. After 3 days, cells were rinsed twice with 100 μl of DMEM medium, the medium was exchanged with 100 μl of DMEM medium containing 0.1% albumin (starvation medium), and serum starvation was initiated. […]
Upon adding 20 μl of MTT (3-[4,5-dimethylthiazol-2-yl]-2,5-diphenyltetrazolium bromide) dissolved in DPBS to 7.5 mg/ml, incubation was continued for 4 hours. […] As an index of cell proliferation, the OD 590 nm was measured using a plate reader (EL340, BIO-TEK Instruments Inc.), and the control OD value (OD value in the absence of the test compound) minus the OD value in the presence of the test compound was divided by the control OD value minus the blank OD value (OD value without thrombin stimulation) to determine the inhibition ratio, from which the value was calculated.

The target in the next assay is T1, PAR1 thrombin receptor (Homo sapiens, UniProt P25116).
T1 construct: centrifuged at 40,000 g for 60 minutes to yield platelet membrane; from tissue; host or cells: platelet membrane from donor blood
T1 sequence (P25116 22-425): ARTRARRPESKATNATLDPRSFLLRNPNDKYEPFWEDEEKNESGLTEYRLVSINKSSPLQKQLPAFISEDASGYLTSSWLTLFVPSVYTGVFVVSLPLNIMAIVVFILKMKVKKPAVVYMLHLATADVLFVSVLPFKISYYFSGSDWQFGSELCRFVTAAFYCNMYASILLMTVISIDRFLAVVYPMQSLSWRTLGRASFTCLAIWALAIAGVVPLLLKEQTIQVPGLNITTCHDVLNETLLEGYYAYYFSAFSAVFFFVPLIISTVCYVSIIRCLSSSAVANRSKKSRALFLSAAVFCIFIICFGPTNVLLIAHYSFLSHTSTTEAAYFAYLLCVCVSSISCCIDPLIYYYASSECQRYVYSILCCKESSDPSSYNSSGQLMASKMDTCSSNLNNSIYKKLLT
Kind of assay: Receptor binding assay ([3H] high affinity TRAP, platelet membrane). The note with it: displacement of 25 nM [3H] high affinity TRAP from platelet membrane, 37° C., 1 hour; read-out: RBA IC50. As to the method:
Blood was sampled from a healthy adult who had taken no drugs for one week, and 3.8% citric acid (a ratio of 1:9 with respect to the blood) was added as an anticoagulant. The mixture was then centrifuged at 100 g for 10 minutes at room temperature to yield platelet rich plasma (PRP). The platelet precipitate obtained, by centrifuging the PRP was homogenized with a Dounce homogenizer, and then centrifuged at 40,000 g for 60 minutes to yield platelet membrane. The platelet membrane was suspended in a solution prepared by adding DMSO (dimethyl sulfoxide) at 1% concentration to Buffer 1: a 50 mM Tris-HCl buffer containing 10 mM MgCl2 and 1 mM EGTA (ethylene glycol tetraacetic acid), and the suspension was stored at −80° C. Bovine albumin and DMSO were added to Buffer 1 at 0.1% and 20%, respectively, to make a preparation solution for the test compound. […] Next, 30 μl of liquid scintillator was added for measurement of the radioactivity of the plate using a Top Counter (Packard), the value of the radioactivity in the presence of the test compound minus non-specific binding portion was divided by the specific binding value (the value of the binding in the absence of the compound minus the non-specific binding portion) to determine the binding ratio, from which the IC50 value was calculated. […]

A word on the IC50: it is the concentration that gives 50% inhibition.

Where a name gives a salt, the structure may show the parent alone.

For the compound `CCCC1CN(CC(=O)c2cc(N(C)S(C)(=O)=O)c(O)c(C(C)(C)C)c2)C(=N)[C@@H]1c1ccccc1` (stereo in doubt) [Example 3, N-{3-tert-Butyl-2-hydroxy-5-[2-((3S,4S)-2-imino-3-phenyl-4-propyl-pyrrolidin-1-yl)-acetyl]-phenyl}-N-methyl-methanesulfonamide hydrobromide], the IC50 in assay [1] was 2.3 µM; in assay [2], 2.5 µM; at PAR1 thrombin receptor, 0.66 µM.
